# In patent publication US4584293A, “Aminotetralin derivatives” (Dr. Karl Thomae GmbH, priority 1984, dated 1986):
# Counter-ions that a name gives are not always drawn.
# How the values were obtained:
# Assay type in all cases: in vivo
# [1] = system: heart rate; assay: Effect on heart rate in cats (anesthetised, i.v.); settings: chloralose-anesthetised cats
# Method: The effect of the test substances on heart rate is tested on cats (seven) of both sexes with an average weight of from 2.5 to 3.5 kg for each dose. The cats are anesthetised with chloralose (80 mg/kg). The test substance is injected in aqueous solution into the vena saphena. The heart rate is recorded before and after administration of the substance using a Grass tachograph from the electrocardiogram (electrode attached to the chest wall) on a Grass polygraph.
# [2] = system: heart rate; assay: Effect on heart rate in rats (anesthetized, i.v.); settings: 5.0 mg/kg into jugular vein, pentobarbital-anesthetized rats
# Method: The effect of the test substances on heart rate is tested in rats (two) with an average weight of from 250 to 300 g for each dose. The rats are anesthetized with pentobarbital (50 mg/kg i.p. and 20 mg/kg s.c.). The test substances are injected in aqueous solution into the jugular vein (0.1 ml/100 g). The blood pressure is measured using a canula tied into a carotid artery and heart rate was recorded from an ECG (II or III derivation) obtained with needle electrodes. The heart rate of the animals in the control period is between 350 and 400 beats per minute (b/min).
# [3] = Toxic side effects in mice after intravenous administration; settings: administered intravenously, 20 mg/kg in mice
# From the text: The compounds prepared according to the invention have no toxic side effects in therapeutic doses. […] In view of their pharmacological properties the compounds according to the invention are suitable for the treatment of sinus tachycardia of various origins and for the prophylaxis and therapy of ischaemic heart diseases.
Structure (SMILES),Half life ([1]; 0.3 mg/kg i.v.),Lowering of heart rate ([1]; 0.3 mg/kg i.v.),Half life ([1]; 1.0 mg/kg i.v.),Lowering of heart rate ([1]; 1.0 mg/kg i.v.),Lowering of heart rate measured 20 minutes after administration of substance [2],toxic side effects [3]
"COc1cc2c(cc1OC)CC(=O)N(CCCN(C)C1CCc3cc(OC)c(OC)cc3C1)CC2.Cl (stereo not drawn) [Substance A, 1-[7,8-Dimethoxy-1,3,4,5-tetrahydro-2H-3-benzazepin-2-on-3-yl]-3-[N-methyl-N-(6,7-dimethoxy-1,2,3,4-tetrahydronaphth-2-yl)-amino]-propane hydrochloride]",> 120 min,-30%,> 120 min,-58%,-176 b/min,no toxic side effects apart from slight sedation
"COc1cc2c(cc1OC)CC(=O)N(CCCNC1CCc3cc(OC)c(OC)cc3C1)CC2.Cl (stereo not drawn) [Substance B, 1-[7,8-Dimethoxy-1,3,4,5-tetrahydro-2H-3-benzazepin-2-on-3-yl]-3-[N-(6,7-dimethoxy-1,2,3,4-tetrahydronaphth-2-yl)-amino]-propane hydrochloride]",–,–,> 120 min,-55%,-203 b/min,no toxic side effects apart from slight sedation
"COc1ccc2c(c1)CC(N(C)CCCN1CCc3cc(OC)c(OC)cc3CC1=O)CC2 (stereo not drawn) [Substance C, 1-7,8-Dimethoxy-1,3,4,5-tetrahydro-2H-3-benzazepin-2-on-3-yl]-3-[N-methyl-N-(7-methoxy-1,2,3,4-tetrahydronaphth-2-yl)-amino]-propane hydrochloride]",–,–,–,–,-184 b/min,–
"COc1ccc2c(c1)CCC(N(C)CCCN1CCc3cc(OC)c(OC)cc3CC1=O)C2.Cl (stereo not drawn) [Substance D, 1-[7,8-Dimethoxy-1,3,4,5-tetrahydro-2H-3-benzazepin-2-on-3-yl]-3-[N-methyl-N-(6-methoxy-1,2,3,4-tetrahydronaphth-2-yl)-amino]-propane hydrochloride]",–,–,–,–,-165 b/min,–
